US8629186B2, “Polymer micelles containing anthracyclines for the treatment of cancer” (Intezyne Technologies, Inc., priority 2009, dated 2014)
Like-named read-outs stand apart in the source and are kept apart here.

Tests used:
[1] = system: MG-63 cells; test: Cytotoxicity of daunorubicin micelles compared to free daunorubicin, 72 hours, Cell-Titer Glo; format: cell-based; conditions: Homo sapiens, MG-63, 72 h
Method: (§1) All cell lines were obtained from ATCC (Manassas, Va.). Media and supplements were obtained from Cell Gro (Manassas, Va.). HT-1080 cells were maintained in Eagle's Minimum Essential Medium supplemented with 10% FBS, 2 mM L-Glutamine, 1 mM sodium pyruvate, and 100 units/mL of penicillin and streptomycin. […] Cells were treated in triplicate. […] It should be noted that the IC50 values of the daunorubicin micelles are very similar to free daunorubicin.

[2] = system: SKOV-3 cells; test: as above; format: cell-based; conditions: Homo sapiens, SK-OV-3, 72 h
Method: as §1

[3] = system: 786-0 cells; test: as above; format: cell-based; conditions: Homo sapiens, 786-0, 72 h
Method: as §1

[4] = system: HT-1080 cells; test: as above; format: cell-based; conditions: Homo sapiens, HT-1080, 72 h
Method: as §1

[5] = Rat pharmacokinetics of daunorubicin micelles compared to free daunorubicin (Example 54); format: in vivo, Fisher rats; conditions: plasma
Method: The delivery vehicle for drug administration was isotonic saline.
This study was repeated, and the micelles were injected in the same rats seven days after the first injection. The pharmacokinetic results are shown in the table below, and graphed in FIG. 22.

[6] = rat, in vivo, iv, 10 mg/kg
Method: The delivery vehicle for drug administration was isotonic saline. Rat blood was collected from the catheter into K2-EDTA tubes […] at time points of 1, minute, 5 minutes, 15 minutes, 1 hour, 4 hours, 8 hours and 24 hours. Plasma was isolated by centrifugation at 1000 RPM for 5 minutes, and 150 uL of extraction solution (ice cold methanol/100 ng/mL daunorubicin internal standard) was added to 50 uL of each plasma sample. Samples were then vortexed for 10 minutes, centrifuged at 13,000 RPM for 10 minutes, and 150 uL of the supernatant is transferred to HPLC vials for analysis.
(§2) Samples were analyzed on a Waters Alliance 2695 equiped with a 2475 fluorescence detector (Ex=470 nm; Em=580). A 5 μL sample injection was made onto a Waters 4 μm Nova Pak C18 (3.9×150 mm) at 30° C. with a flow rate of 0.750 mL per minute of 10 mM phosphate buffer (pH=1.4), methanol and acetonitrile (gradient from 70/10/20 to 40/10/50 for buffer/methanol/acetonitrile was made over eight minutes).

[7] = Pharmacokinetics of crosslinked DOX loaded micelles in mice (Example 29); conditions: athymic nude mice, 15 mg/kg fast IV bolus tail vein, plasma doxorubicin
Method: Athymic nude mice were injected with 15 mg/kg of either doxorubicin, crosslinked dox loaded micelles (IT-143, Example 24), or dox loaded micelles (Example 23) by a fast IV bolus into the tail vein with an injection volume of 0.2-0.4 mL. The delivery vehicle for drug administration was isotonic saline. Mouse blood was collected from mice into K2-EDTA tubes by heart puncture at time points of 5 minutes, 15 minutes, 1 hour, and 4 hours. Plasma was isolated by centrifugation at 1000 RPM for 5 minutes, and 150 uL of extraction solution (ice cold methanol/100 ng/mL daunorubicin internal standard) was added to 50 uL of each plasma sample. Samples are then vortexed for 10 minutes, centrifuged at 13,000 RPM for 10 minutes, and 150 uL of the supernatant is transferred to HPLC vials for analysis.
as §2

Compound	IC50 [1] [nM]	IC50 [2] [nM]	IC50 [3] [nM]	IC50 [4] [nM]	Cmax ([5]; Fisher rats, 10 mg/kg fast IV bolus, Day 0 (first injection)) [ng/mL]	AUC ([5]; Fisher, rat, intravenous, 10 mg/kg, repeat experiment, same rats seven days after the first injection) [ng·h/mL]	Cmax ([5]; Fisher, rat, intravenous, 10 mg/kg, repeat experiment, same rats seven days after the first injection, read-out: Cmax) [ng/mL]	AUC [6] [ng·h/mL]	Cmax [6] [ng/mL]	AUC [7] [ng·h/mL]	Cmax [7] [ng/mL]	T½ [7] [h]
COc1cccc2c1C(=O)c1c(O)c3c(c(O)c1C2=O)C[C@@](O)(C(C)=O)C[C@@H]3O[C@H]1C[C@H](N)[C@H](O)[C@H](C)O1 [Daunorubicin, daunorubicin]	231 ± 11	200 ± 12	231 ± 11	546 ± 57	3290	3540	10600					
COc1cccc2c1C(=O)c1c(O)c3c(c(O)c1C2=O)C[C@@](O)(C(=O)CO)C[C@@H]3O[C@H]1C[C@H](N)[C@H](O)[C@H](C)O1 [Free Dox, doxorubicin]								2610	9760	200	210	5.4
